In US20240368150A1 (Hoffmann-La Roche Inc., priority 2021, published 2024):
Where two headings read alike, the source gives them in different places.

Experiments:
[1] = system: primary human T-cells; assay: Proliferation assay after 5 days (CellTiter-Glo, CD3 stimulation; PBS counter screen); format: cell-based; conditions: CD3 stimulation; for EC50: primary human T-cells, CellTiter-Glo after 5 days, EC50 of fitted sigmoidal curve, read-out: Tcell Proliferation CD3 EC50; for Emax: read-out: Emax proliferation (% activation)
Description: Compounds are then added (see next section) to medium only plates.
Cells are assessed for proliferation 5 days later by measuring […] using CellTiterGlo (Promega).
After 5 days, for detection of ATP which is directly proportional to the number of cells present per well, the CellTiter-Glo® 2.0 Reagent is used. After visual control for toxicity or precipitations of the tested compounds, the plates are equilibrated to room temperature for 45 minutes. CellTiter-Glo® 2.0 Reagent is equilibrated to room temperature as well. After equilibration, an equal amount of CellTiter-Glo reagent is added to the cells (80 μl/well) with an electronic multichannel pipette. Plates are placed on a rocking platform for 15 minutes at room temperature. After incubation, the bottom of the plates is sealed with backing tape. Luminescence is measured with PHERAstar FSX (interval time 0.5 sec, gain 3000, focal height 15 mm) and exported as CSV file for analysis in Genedata screener.
Compounds which activate unstimulated cells (see IL2 measurements) or compounds which negatively affected viability were flagged.

[2] = system: primary human T-cells
Description: As readouts for T-cell activation, IL2 secretion after 24 hours and proliferation after 5 days was measured. Increases in IL2 secretion and proliferation upon compound treatment were assessed as the % of the maximum of reference compound A1. […] As a counter screen and to make sure that no unwanted TCR-independent activation was triggered, PBS conditions were run for all compounds.
For coating of plates, PBS++ with PBS−− or PBS++ with CD3 antibody (concentration depending on donor and determined by CD3 titrations) was added 100 μl/well to Poly-D Lysine coated 96-well plates. Plates were sealed and incubated at room temperature for 3 hours on a table-top rocking platform. After incubation, plates were washed once with PBS−− and filled with 40 μl/well culture medium only. Compounds were then added (see next section) to medium only plates. After 3 hours of culturing the T-cells, cells were filtered through a cell strainer (Miltenyi Biotech, #130-041-407), counted again and concentration was adjusted to 1.25 Mio/ml.
Cells were then seeded 80 μl/well to the 40 μl/well including dispensed compounds according to plate layout. By adding cells, compounds were further diluted 1:3, and resulting in 100 k cells/120 μl/well. After 24 hours 40 μl of supernatant was collected carefully from the top while not disturbing the cells and transferred into a round bottom 96 well plate. Collected and frozen supernatant was used for detection of IL2 using the IL-2 Human ProQuantum Immunoassay Kit (Invitrogen) or using the Human IL-2 ELISA Kit (Thermo Fisher).
Compounds were added in a 5 or 6pt dose response with the Tecan D300e Digital Dispenser, all conditions 3 times more concentrated than the end-concentration, since cells are added afterwards (80 μl cells to 40 μl prepared medium with treatment). The DR was starting at 20 μM or 10 μM final top concentration and a dilution factor of 3.333. The positive control was the reference compound A1 that was added in a dose response as well, additionally to 3 wells of only 20 μM representing the positive stimulator control. All wells were normalized with DMSO to a final concentration of 0.6% (0.2% end-concentration).
The immunoassay is done following the manufacturer's manual (Invitrogen, #A35603). Additional information: For the immunoassay, MicroAmp™ EnduraPlate™ Optical 384-Well plates are used. Frozen supernatant is thawed and centrifuged for 5 minutes at 1000×g, both steps at 4° C. After centrifugation, required sample amount is taken from the top, and in a separate LightCycler V-bottom plate (working plate) diluted with assay dilution buffer, dilution factor depending on the PBS or CD3 condition but at least 1:3. IL-2 standard and blanks are prepared in the same V-bottom plate, standard with a range of 0.0128-5000 pg/ml (extended version). After preparation, 5 μl of sample dilutions or standard/blanks are transferred to the optical 384-well plate (assay plate) and the 10 μl reaction protocol is being followed. For measurement, the QuantStudio 12K Flex system is used.
ELISA is done following the manufacturer's manual (Thermo Fisher Scientific, #88-7025-88). Additional information: For the ELISA Nunc MaxiSorp 96 well plates are used. Frozen supernatant is thawed and centrifuged for 5 minutes at 1000×g, both steps at 4° C. After that, required sample amount is taken from the top, and in a separate V-bottom plate diluted with ELISA diluent, dilution factor depending on the PBS or CD3 condition. IL-2 standard and blanks are prepared in the same V-bottom plate. After preparation, 50 μl of sample dilutions and 100 μl of standard or blanks are transferred to the Nunc plates.
CD3 and PBS plates were analysed separately in Genedata Screener using Roche Normalization PCT_POS_CTRL with DMSO set as Neutral Control and 20 μM of the reference compound A1 set as Stimulator Control/100%.
For CD3 conditions EC50 and Emax of the fitted sigmoidal curve were reported.

[3] = Homo sapiens, T-cell, 120 h, 5 days, normalized to reference compound A1 as stimulator control = 100%, DMSO neutral control

Row | EC50 [2] | SMILES | Emax proliferation (% activation) ([1]; 5 days, normalized to reference compound A1 as stimulator control = 100%, DMSO neutral control) | EC50 [1] | Emax [1, 3] | EC50 ([1]; Homo sapiens, T-cell, 120 h)
1 | 1.58 µM | N[C@H]1C[S+]([O-])c2ccc(-c3nnc(CC(F)(F)F)o3)cc2N(Cc2ccc(OC(F)(F)F)cc2)C1=O (single isomer, unassigned; epimer b) [Example 428] | 38 % activation | 3.28 µM | – | –
2 | 0.991 µM | CC(C)(C)c1cn(-c2cc3c(cc2F)S(=O)(=O)C[C@H](N)C(=O)N3Cc2ccc(Cl)cc2)nn1 [Example 5, (3R)-3-amino-7-(4-tert-butyltriazol-1-yl)-5-[(4-chlorophenyl)methyl]-8-fluoro-1,1-dioxo-2,3-dihydro-1λ^6,5-benzothiazepin-4-one] | – | – | 154% | 2.14 µM
3 | > 20 µM | CCn1cc(-c2cc3c(cc2F)S(=O)(=O)C[C@H](N)C(=O)N3Cc2ccc(Cl)cc2)nn1 [Example 6, (3R)-3-amino-5-[(4-chlorophenyl)methyl]-7-(1-ethyltriazol-4-yl)-8-fluoro-1,1-dioxo-2,3-dihydro-1λ^6,5-benzothiazepin-4-one] | – | – | 39% | > 20 µM
4 | 1.32 µM | CN1CC[C@H](n2nnc(-c3cc4c(cc3F)S(=O)(=O)C[C@H](N)C(=O)N4Cc3ccc(Cl)cc3)n2)C1 [Example 9, (3R)-3-amino-5-[(4-chlorophenyl)methyl]-8-fluoro-1,1-dioxo-7-[2-[(3S)-1-methylpyrrolidin-3-yl]tetrazol-5-yl]-2,3-dihydro-1λ^6,5-benzothiazepin-4-one] | – | – | 63% | 4.66 µM
5 | 3.1 µM | CN1CC[C@@H](n2nnc(-c3cc4c(cc3F)S(=O)(=O)C[C@H](N)C(=O)N4Cc3ccc(Cl)cc3)n2)C1 [Example 10, (3R)-3-amino-5-[(4-chlorophenyl)methyl]-8-fluoro-1,1-dioxo-7-[2-[(3R)-1-methylpyrrolidin-3-yl]tetrazol-5-yl]-2,3-dihydro-1λ^6,5-benzothiazepin-4-one] | – | – | 78% | 4.04 µM
6 | 1.3 µM | CC(=O)N1CCC(n2nnc(-c3cc4c(cc3F)S(=O)(=O)C[C@H](N)C(=O)N4Cc3ccc(Cl)cc3)n2)CC1 [Example 11, (3R)-7-[2-(1-acetyl-4-piperidyl)tetrazol-5-yl]-3-amino-5-[(4-chlorophenyl)methyl]-8-fluoro-1,1-dioxo-2,3-dihydro-1λ^6,5-benzothiazepin-4-one] | – | – | 107% | 1.36 µM
7 | > 10 µM | CC(=O)N1CCCC(n2nnc(-c3cc4c(cc3F)S(=O)(=O)C[C@H](N)C(=O)N4Cc3ccc(Cl)cc3)n2)C1 (stereo partly drawn) [Example 13, (3R)-7-[2-(1-acetyl-3-piperidyl)tetrazol-5-yl]-3-amino-5-[(4-chlorophenyl)methyl]-8-fluoro-1,1-dioxo-2,3-dihydro-1λ^6,5-benzothiazepin-4-one] | – | – | 87% | 3.51 µM
8 | 0.917 µM | NC(Cn1nnc(-c2cc3c(cc2F)S(=O)(=O)C[C@H](N)C(=O)N3Cc2ccc(Cl)cc2)n1)C(F)(F)F (stereo partly drawn) [Example 14, (3R)-3-amino-7-[2-(2-amino-3,3,3-trifluoro-propyl)tetrazol-5-yl]-5-[(4-chlorophenyl)methyl]-8-fluoro-1,1-dioxo-2,3-dihydro-1λ^6,5-benzothiazepin-4-one] | – | – | 131% | 0.81 µM
9 | 0.832 µM | COC(=O)N1CCC(n2nnc(-c3cc4c(cc3F)S(=O)(=O)C[C@H](N)C(=O)N4Cc3ccc(Cl)cc3)n2)C1 (stereo partly drawn) [Example 15, methyl 3-[5-[(3R)-3-amino-5-[(4-chlorophenyl)methyl]-8-fluoro-1,1,4-trioxo-2,3-dihydro-1λ^6,5-benzothiazepin-7-yl]tetrazol-2-yl]pyrrolidine-1-carboxylate] | – | – | 109% | 2.44 µM
10 | 2.83 µM | Cn1nnc(-c2cc3c(cc2F)S(=O)(=O)C[C@H](N)C(=O)N3Cc2ccc(Cl)cc2)n1 [Example 16, (3R)-3-amino-5-[(4-chlorophenyl)methyl]-8-fluoro-7-(2-methyltetrazol-5-yl)-1,1-dioxo-2,3-dihydro-1λ^6,5-benzothiazepin-4-one] | – | – | 65% | 3.66 µM
11 | 0.262 µM | CS(=O)(=O)N1CCC(n2nnc(-c3cc4c(cc3F)S(=O)(=O)C[C@H](N)C(=O)N4Cc3ccc(Cl)cc3)n2)CC1 [Example 17, (3R)-3-amino-5-[(4-chlorophenyl)methyl]-8-fluoro-7-[2-(1-methylsulfonyl-4-piperidyl)tetrazol-5-yl]-1,1-dioxo-2,3-dihydro-1λ^6,5-benzothiazepin-4-one] | – | – | 239% | 0.167 µM
12 | 0.91 µM | CS(=O)(=O)N1CCCC(n2nnc(-c3cc4c(cc3F)S(=O)(=O)C[C@H](N)C(=O)N4Cc3ccc(Cl)cc3)n2)C1 (stereo partly drawn) [Example 18, (3R)-3-amino-5-[(4-chlorophenyl)methyl]-8-fluoro-7-[2-(1-methylsulfonyl-3-piperidyl)tetrazol-5-yl]-1,1-dioxo-2,3-dihydro-1λ^6,5-benzothiazepin-4-one] | – | – | 136% | 0.295 µM
13 | 1.17 µM | CS(=O)(=O)N1CCC(n2nnc(-c3cc4c(cc3F)S(=O)(=O)C[C@H](N)C(=O)N4Cc3ccc(Cl)cc3)n2)C1 (stereo partly drawn) [Example 19, (3R)-3-amino-5-[(4-chlorophenyl)methyl]-8-fluoro-7-[2-(1-methylsulfonylpyrrolidin-3-yl)tetrazol-5-yl]-1,1-dioxo-2,3-dihydro-1λ^6,5-benzothiazepin-4-one] | – | – | 58% | 1.29 µM
14 | 0.846 µM | CN1CCCC(n2nnc(-c3cc4c(cc3F)S(=O)(=O)C[C@H](N)C(=O)N4Cc3ccc(Cl)cc3)n2)C1 (stereo partly drawn) [Example 20, (3R)-3-amino-5-[(4-chlorophenyl)methyl]-8-fluoro-7-[2-(1-methyl-3-piperidyl)tetrazol-5-yl]-1,1-dioxo-2,3-dihydro-1λ^6,5-benzothiazepin-4-one] | – | – | 111% | 0.567 µM
15 | 0.665 µM | CN1CC(n2nnc(-c3cc4c(cc3F)S(=O)(=O)C[C@H](N)C(=O)N4Cc3ccc(Cl)cc3)n2)CC(F)(F)C1 (stereo partly drawn) [Example 21, (3R)-3-amino-5-[(4-chlorophenyl)methyl]-7-[2-(5,5-difluoro-1-methyl-3-piperidyl)tetrazol-5-yl]-8-fluoro-1,1-dioxo-2,3-dihydro-1λ^6,5-benzothiazepin-4-one] | – | – | 127% | 0.293 µM
16 | > 10 µM | CN1CC(n2nnc(-c3cc4c(cc3F)S(=O)(=O)C[C@H](N)C(=O)N4Cc3ccccc3)n2)CC(F)(F)C1 (stereo partly drawn) [Example 22, (3R)-3-amino-5-benzyl-7-[2-(5,5-difluoro-1-methyl-3-piperidyl)tetrazol-5-yl]-8-fluoro-1,1-dioxo-2,3-dihydro-1λ^6,5-benzothiazepin-4-one] | – | – | 74% | > 10 µM
17 | 3.79 µM | CS(=O)(=O)N1CC(n2nnc(-c3cc4c(cc3F)S(=O)(=O)C[C@H](N)C(=O)N4Cc3ccc(Cl)cc3)n2)CC(F)(F)C1 (stereo partly drawn) [Example 23, (3R)-3-amino-5-[(4-chlorophenyl)methyl]-7-[2-(5,5-difluoro-1-methylsulfonyl-3-piperidyl)tetrazol-5-yl]-8-fluoro-1,1-dioxo-2,3-dihydro-1λ^6,5-benzothiazepin-4-one] | – | – | 161% | 0.588 µM
18 | 6.62 µM | CC(=O)N1CC(n2nnc(-c3cc4c(cc3F)S(=O)(=O)C[C@H](N)C(=O)N4Cc3ccc(Cl)cc3)n2)CC(F)(F)C1 (stereo partly drawn) [Example 24, (3R)-7-[2-(1-acetyl-5,5-difluoro-3-piperidyl)tetrazol-5-yl]-3-amino-5-[(4-chlorophenyl)methyl]-8-fluoro-1,1-dioxo-2,3-dihydro-1λ^6,5-benzothiazepin-4-one] | – | – | 95% | 2.02 µM
19 | 1.32 µM | COC(=O)N1CC(n2nnc(-c3cc4c(cc3F)S(=O)(=O)C[C@H](N)C(=O)N4Cc3ccc(Cl)cc3)n2)CC(F)(F)C1 (stereo partly drawn) [Example 25, methyl 3,3-difluoro-5-[5-[(3R)-3-amino-5-[(4-chlorophenyl)methyl]-8-fluoro-1,1,4-trioxo-2,3-dihydro-1λ^6,5-benzothiazepin-7-yl]tetrazol-2-yl]piperidine-1-carboxylate] | – | – | 132% | 0.249 µM
20 | > 10 µM | CC(=O)N[C@H]1CS(=O)(=O)c2cc(F)c(-c3nnn(C4CNCC(F)(F)C4)n3)cc2N(Cc2ccc(Cl)cc2)C1=O (stereo partly drawn) [Example 26, N-[(3R)-5-[(4-chlorophenyl)methyl]-7-[2-(5,5-difluoro-3-piperidyl)tetrazol-5-yl]-8-fluoro-1,1,4-trioxo-2,3-dihydro-1λ^6,5-benzothiazepin-3-yl]acetamide] | – | – | 64% | 6.39 µM
21 | 1.23 µM | CC(C)(O)Cn1nnc(-c2cc3c(cc2F)S(=O)(=O)C[C@H](N)C(=O)N3Cc2ccc(Cl)cc2)n1 [Example 27, (3R)-3-amino-5-[(4-chlorophenyl)methyl]-8-fluoro-7-[2-(2-hydroxy-2-methyl-propyl)tetrazol-5-yl]-1,1-dioxo-2,3-dihydro-1λ^6,5-benzothiazepin-4-one] | – | – | 103% | 2.05 µM
